Each structure is given as a SMILES string.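 1) Cells in 96-well plates. 2) Compound, 48 h, 5 concentrations. 3) Linear interpolation between surrounding doses. 4) Unreached endpoint = highest concentration. The concentration for 50% growth inhibition is given as GI50.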 The source made the active and inactive calls. Rule as the data show it: active = GI50 up to about 1.1 µM and inactive = higher.

This is an account of results in ChEMBL document CHEMBL1201862, “PubChem BioAssay data set” (2004).

Some test systems named below: SK-MEL-28; SF-539; BT-549; OVCAR-5; HCT-116; MCF7; CCRF-CEM; NCI-H23; OVCAR-8; MOLT-4; 786-0; NCI-H522; HL-60; OVCAR-4; A498; SF-268; SNB-75; CAKI-1; K562; MDA-MB-435.
Holding throughout (assay): NCI anticancer screen, dose series, 48 h

As to `CC(=O)OCCOCCN1CCN(C2=C(Cl)C(=O)c3c(O)ccc(O)c3C2=O)CC1`, the GI50 in the assay on SK-MEL-28 was 1.04 µM (active); in the assay on SF-539 it was 1.71 µM (inactive); with BT-549 it was 0.776 µM (active); with OVCAR-5 it was 1.59 µM (inactive); with HCT-116, 0.305 µM (active); in the assay on MCF7, 0.302 µM (active). In addition, the GI50 with CCRF-CEM is 0.0662 µM (active); with NCI-H23, 0.684 µM (active); with OVCAR-8 it was 0.685 µM (active); with MOLT-4, 0.165 µM (active); with 786-0 it was 0.326 µM (active); in the assay on NCI-H522, 0.265 µM (active). The GI50 with HL-60 was 0.0394 µM (active); with OVCAR-4 it was 0.627 µM (active); in the assay on A498, 1.86 µM (inactive); in the assay with SF-268, 1.86 µM (inactive); with SNB-75 it was 2.06 µM (inactive); in the assay with CAKI-1 it was 0.339 µM (active). Further, the GI50 was 0.264 µM (active) with K562 and 0.71 µM (active) in the assay on MDA-MB-435.
Consider `COC(=O)NC1=NNC(=O)c2ccccc2N1`, for which the GI50 in the assay on SK-MEL-28, in the assay on SF-539, with BT-549, with OVCAR-5, in the assay with HCT-116 and with MCF7 was > 100 µM (inactive) throughout. Also, the GI50 in the assay on CCRF-CEM, in the assay with NCI-H23, in the assay on OVCAR-8, in the assay on MOLT-4, in the assay on 786-0 and in the assay with NCI-H522 was > 100 µM (inactive) throughout. For the same compound, the GI50 in the assay with HL-60, with OVCAR-4, in the assay on A498, in the assay on SF-268, in the assay on SNB-75 and with CAKI-1 was > 100 µM (inactive) each time. For the same compound, the GI50 in the assay with K562 and in the assay on MDA-MB-435 was > 100 µM (inactive) throughout.
In the case of `COc1ccc(NC(=O)C(=O)C(CC2C(=O)NC(=S)NC2=O)C(=O)c2ccc3ccccc3c2)c([N+](=O)[O-])c1` (centres undefined), the GI50 with SK-MEL-28, in the assay on SF-539, with BT-549, in the assay on OVCAR-5, in the assay with HCT-116 and in the assay with MCF7 was > 100 µM (inactive) in each case. The GI50 in the assay with CCRF-CEM is 8.99 µM (inactive); in the assay on NCI-H23, > 100 µM (inactive); with OVCAR-8, > 100 µM (inactive); in the assay on MOLT-4, > 100 µM (inactive); with 786-0 it was > 100 µM (inactive); with NCI-H522, > 100 µM (inactive). In addition, the GI50 in the assay with HL-60, with OVCAR-4, with A498, in the assay on SF-268, in the assay on SNB-75 and in the assay on CAKI-1 was > 100 µM (inactive) each time. The GI50 with K562 and in the assay on MDA-MB-435 was > 100 µM (inactive) throughout.
With `CC(=O)c1ccc2c(c1)CC1(C2)Cc2cc3c(c(C(=O)O)c2C1)CCC3` (centres undefined), the GI50 in the assay on SK-MEL-28, with SF-539, in the assay with BT-549, with OVCAR-5, in the assay with HCT-116 and in the assay with MCF7 was > 100 µM (inactive) each time. Moreover, the GI50 with CCRF-CEM was 81.8 µM (inactive); in the assay on NCI-H23, > 100 µM (inactive); in the assay on OVCAR-8, > 100 µM (inactive); in the assay with MOLT-4, > 100 µM (inactive); in the assay on 786-0 it was > 100 µM (inactive); in the assay with NCI-H522, 79.6 µM (inactive). Besides, the GI50 was > 100 µM (inactive) in the assay on HL-60; 78.7 µM (inactive) with OVCAR-4; > 100 µM (inactive) in the assay on A498; > 100 µM (inactive) in the assay with SF-268; 61.5 µM (inactive) in the assay on SNB-75; > 100 µM (inactive) with CAKI-1. Besides, the values for the GI50 in the assay with K562 and with MDA-MB-435 were 72.4 µM (inactive) and > 100 µM (inactive), respectively.
`COc1ccc(Nc2[nH]c(C(C)=O)c(N)c2C(=S)Nc2ccccc2)cc1`: the GI50 is 36.2 µM (inactive) with SK-MEL-28; 73.1 µM (inactive) in the assay with SF-539; 78 µM (inactive) with BT-549; > 100 µM (inactive) in the assay on OVCAR-5; 38.6 µM (inactive) in the assay with HCT-116; 23.6 µM (inactive) in the assay on MCF7. For the same compound, the GI50 in the assay with CCRF-CEM is > 100 µM (inactive); with NCI-H23, 65 µM (inactive); in the assay on OVCAR-8, 60.8 µM (inactive); in the assay with MOLT-4, > 100 µM (inactive); in the assay on 786-0, 42.5 µM (inactive); in the assay on NCI-H522, 36.6 µM (inactive). The GI50 in the assay with HL-60 is 45.1 µM (inactive); with OVCAR-4 it was 36.5 µM (inactive); with A498 it was > 100 µM (inactive); in the assay on SF-268 it was 29.6 µM (inactive); in the assay with SNB-75, > 100 µM (inactive); in the assay on CAKI-1, 87.3 µM (inactive). The GI50 in the assay on K562 was 45.9 µM (inactive); with MDA-MB-435, 49.4 µM (inactive).
`Oc1ccccc1-c1n[nH]c(-c2ccccc2O)n1`: the GI50 was > 100 µM (inactive) in the assay on SK-MEL-28; 4.84 µM (inactive) in the assay with SF-539; > 100 µM (inactive) in the assay on BT-549; 7.11 µM (inactive) with OVCAR-5; 1.32 µM (inactive) in the assay on HCT-116; 0.577 µM (active) in the assay with MCF7. For the same compound, the GI50 in the assay on CCRF-CEM was 1.47 µM (inactive); in the assay on NCI-H23, 1.71 µM (inactive); in the assay with OVCAR-8, 2.72 µM (inactive); in the assay on MOLT-4, 1.24 µM (inactive); in the assay on 786-0, 4.18 µM (inactive); in the assay with NCI-H522, 1.64 µM (inactive). For the same compound, the GI50 in the assay on HL-60 was 1.27 µM (inactive); in the assay with OVCAR-4 it was 2.36 µM (inactive); in the assay with A498, 8.51 µM (inactive); in the assay on SF-268, 3.05 µM (inactive); in the assay with SNB-75, > 26.1 µM (inactive); in the assay on CAKI-1, 3.22 µM (inactive). For the same compound, the GI50 in the assay with K562 was 3.64 µM (inactive); with MDA-MB-435 it was > 100 µM (inactive).
As to `C1COC(NC(C2CC2)C2CC2)=N1` [RILMENIDINE], the GI50 in the assay with SK-MEL-28, in the assay with SF-539, in the assay with BT-549, with OVCAR-5, in the assay on HCT-116 and in the assay on MCF7 was > 100 µM (inactive) throughout. For the same compound, the GI50 in the assay with CCRF-CEM, with NCI-H23, in the assay with OVCAR-8, with MOLT-4, with 786-0 and in the assay on NCI-H522 was > 100 µM (inactive) in each case. Further, the GI50 is > 100 µM (inactive) with HL-60; > 100 µM (inactive) with OVCAR-4; > 100 µM (inactive) in the assay with A498; 31.1 µM (inactive) in the assay on SNB-75; > 100 µM (inactive) with CAKI-1; > 100 µM (inactive) in the assay with K562. Further, in the assay on MDA-MB-435, the GI50 is > 100 µM (inactive).
